Reference: patent US20200071316A1, “ACTIVATORS OF THE RETINOIC ACID INDUCIBLE GENE "RIG-I" PATHWAY AND METHODS OF USE THEREOF” (Kineta Immuno-Oncology LLC, priority 2018, published 2020)
Marks after values point to notes of the source that are not given here.

Columns and labels:
[1] = system: IRF3 signaling pathway (IRF-inducible ISG54 promotor) in THP1-Lucia ISG cells; assay: THP1-Lucia ISG reporter assay: induction of IRF3-dependent luciferase activity; format: cell-based; conditions: Homo sapiens, PMA-differentiated cells, 18 h after stimulation, read-out: THP1 ISG: fold increase of IRF3-dependent luciferase activity over background; for fold induction at 10 µM: 10 μM compound
In short: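 PMA-differentiated (100 ng/ml) reporter cells, parental and IRF3−/−, stimulated with compounds at 5–20 μM (mostly 10 μM). Secreted luciferase measured 18 h later. Scored as fold increase over untreated background in bands from "−" (<2.4-fold) to "+++++" (≥40-fold).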

[2] = system: THP1-Lucia ISG IRF3 −/− cells; assay: IRF3-deficient THP1-Lucia ISG IRF3 −/− reporter assay (counter-screen); format: cell-based; conditions: Homo sapiens, 18 h after stimulation, read-out: THP1 ISG IRF3 −/−: fold increase of luciferase activity over background; for fold induction at 10 µM: 10 μM compound
In short: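 PMA-differentiated (100 ng/ml) reporter cells carrying ISRE/ISG54 minimal promoter-driven secreted luciferase were stimulated with compounds at 5–20 μM (mostly 10 μM). Luciferase measured 18 h later and expressed as fold increase over untreated background, binned from "−" (<2.4-fold) to "+++++" (≥40-fold).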

[3] = system: CXCL10 secretion by CT26 cells; assay: RIG-I dependent CXCL10 secretion by CT26 colon carcinoma cells (ELISA); format: cell-based, murine; conditions: 24 h
In short: (§1)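 Murine CT26 colon carcinoma cells, and CRISPR-generated RIG-I knockout CT26 cells, were seeded at 1×10^4 cells/well and grown 24 h at 37 °C, 5% CO2, then treated with compounds at 5 to 20 μM. CXCL10 in supernatants was measured by ELISA 24 h after stimulation.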

[4] = system: RIG-I deficient CT26 RIG-1−/− cells; assay: CXCL10 secretion in RIG-I deficient CT26 RIG-1−/− cells (ELISA); format: cell-based, murine; conditions: 24 h
In short: as §1

| SMILES | fold induction at 10 µM [1] | fold induction at 10 µM [2] | CXCL10 secretion by CT26 cells ([3]; 10 μM compound) | CXCL10 secretion by CT26 RIG-I −/− cells ([4]; 10 μM compound) | fold induction at 5 µM ([1]; 5 μM compound (**)) | fold induction at 5 µM ([2]; 5 μM compound (**)) | CXCL10 secretion by CT26 cells ([3]; 5 μM compound (**)) | CXCL10 secretion by CT26 RIG-I −/− cells ([4]; 5 μM compound (**)) |
| --- | --- | --- | --- | --- | --- | --- | --- | --- |
| CS(=O)(=O)Nc1ccc2nc(NC(=O)c3cc4ccccc4cc3OCCCCN3CCOCC3)sc2c1 [Example 27, N-(6-methanesulfonamido-1,3-benzothiazol-2-yl)-3-[4-(morpholin-4-yl)butoxy]naphthalene-2-carboxamide] | 20 to 39 | < 2.4 | +++ (“+++” indicates 400-799 pg/mL) | − (“−” indicates less than 100 pg/mL) |  |  |  |  |
| O=C(Nc1nc2ccc(S(=O)(=O)N3CCCC3)cc2s1)c1cc2ccccc2cc1OCCCCN1CCC(F)(F)CC1 [Example 80, 3-[4-(4,4-difluoropiperidin-1-yl)butoxy]-N-[6-(pyrrolidine-1-sulfonyl)-1,3-benzothiazol-2-yl]naphthalene-2-carboxamide] | 20 to 39 | < 2.4 | ++++ (“++++” indicates 800 to 1599 pg/mL) | − (“−” indicates less than 100 pg/mL) |  |  |  |  |
| O=C(Nc1nc2ccc(S(=O)(=O)N3CCC(O)C3)cc2s1)c1cc2ccccc2cc1OCCCCN1CCOCC1 (stereo not drawn) [Example 57, N-{6-[(3-hydroxypyrrolidin-1-yl)sulfonyl]-1,3-benzothiazol-2-yl}-3-[4-(morpholin-4-yl)butoxy]naphthalene-2-carboxamide] | 10 to 19 | < 2.4 | +++ (“+++” indicates 400-799 pg/mL) | − (“−” indicates less than 100 pg/mL) |  |  |  |  |
| NS(=O)(=O)c1ccc2nc(NC(=O)c3cc4ccccc4cc3OCCCCN3CCOCC3)sc2c1 [Example 32, 3-[4-(morpholin-4-yl)butoxy]-N-(6-sulfamoyl-1,3-benzothiazol-2-yl)naphthalene-2-carboxamide] |  |  | ++++ (“++++” indicates 800 to 1599 pg/mL) | − (“−” indicates less than 100 pg/mL) | 5 to 9.9 | < 2.4 |  |  |
| O=C(Nc1nc2ccc(S(=O)(=O)N3CCCC3)cc2s1)c1cc2ccccc2cc1OCCCCN1CCOCC1 [Example 31, 3-[4-(morpholin-4-yl)butoxy]-N-[6-(pyrrolidine-1-sulfonyl)-1,3-benzothiazol-2-yl]naphthalene-2-carboxamide] | 10 to 19 | < 2.4 | +++++ (“+++++” indicates greater than or equal to 1600 pg/ml) | − (“−” indicates less than 100 pg/mL) |  |  |  |  |
| O=C(Nc1nc2ccc(S(=O)(=O)N3CCC3)cc2s1)c1cc2ccsc2cc1OCCN1CCOCC1 [Example 62, N-[6-(azetidine-1-sulfonyl)-1,3-benzothiazol-2-yl]-6-[2-(morpholin-4-yl)ethoxy]-1-benzothiophene-5-carboxamide] | 20 to 39 | < 2.4 | ++++ (“++++” indicates 800 to 1599 pg/mL) | − (“−” indicates less than 100 pg/mL) |  |  |  |  |
| O=C(Nc1cc2ccc(S(=O)(=O)N3CCCC3)cc2s1)c1ccc(-c2ccccc2)cc1OCCCCN1CCOCC1 [Example 68, 3-[4-(morpholin-4-yl)butoxy]-N-[6-(pyrrolidine-1-sulfonyl)-1-benzothiophen-2-yl]-[1,1′-biphenyl]-4-carboxamide] | 20 to 39 | < 2.4 | ++++ (“++++” indicates 800 to 1599 pg/mL) | − (“−” indicates less than 100 pg/mL) |  |  |  |  |
| O=C(Nc1nc2ccc(NC(=O)C3CCCCC3)cc2s1)c1ccc2ccccc2c1 [Example 8, N-(6-cyclohexaneamido-1,3-benzothiazol-2-yl)naphthalene-2-carboxamide] | 10 to 19 | < 2.4 | ++++ (“++++” indicates 800 to 1599 pg/mL) | − (“−” indicates less than 100 pg/mL) |  |  |  |  |
| O=C(Nc1ccc2nc(NC(=O)c3ccc4ccccc4c3)sc2c1)c1ccccc1 [Example 6, N-(6-benzamido-1,3-benzothiazol-2-yl)naphthalene-2-carboxamide] | 20 to 39 | < 2.4 | ++ (“++” indicates 200-399 pg/mL) | − (“−” indicates less than 100 pg/mL) |  |  |  |  |
| O=C(Nc1cc2ccc(S(=O)(=O)N3CCCC3)cc2s1)c1cc2ccccc2cc1OCCCCN1CCOCC1 [Example 70, 3-[4-(morpholin-4-yl)butoxy]-N-[6-(pyrrolidine-1-sulfonyl)-1-benzothiophen-2-yl]naphthalene-2-carboxamide] | 10 to 19 | < 2.4 | +++ (“+++” indicates 400-799 pg/mL) | − (“−” indicates less than 100 pg/mL) |  |  |  |  |
| O=C(Nc1nc2ccc(Cc3ccccc3)cc2s1)c1cc2ccccc2cc1OCCN1CCOCC1 [Example 18, N-(6-benzyl-1,3-benzothiazol-2-yl)-3-[2-(morpholin-4-yl)ethoxy]naphthalene-2-carboxamide] | 2.4 to 4.9 | < 2.4 | + (“+” indicates 100-199 pg/mL) | − (“−” indicates less than 100 pg/mL) |  |  |  |  |
| O=C(Nc1nc2ccc(S(=O)(=O)N3CCC3)cc2s1)c1cc2ccsc2cc1OCCCCN1CCOCC1 [Example 63, N-[6-(azetidine-1-sulfonyl)-1,3-benzothiazol-2-yl]-6-[4-(morpholin-4-yl)butoxy]-1-benzothiophene-5-carboxamide] | 2.4 to 4.9 | < 2.4 | + (“+” indicates 100-199 pg/mL) | − (“−” indicates less than 100 pg/mL) |  |  |  |  |
| O=C(Nc1nc2ccc(S(=O)(=O)N3CCC3)cc2s1)c1ccc(-c2ccccc2)cc1OCCN1CCOCC1 [Example 60, N-[6-(azetidine-1-sulfonyl)-1,3-benzothiazol-2-yl]-3-[2-(morpholin-4-yl)ethoxy]-[1,1′-biphenyl]-4-carboxamide] | 20 to 39 | < 2.4 | ++++ (“++++” indicates 800 to 1599 pg/mL) | − (“−” indicates less than 100 pg/mL) |  |  |  |  |
| O=C(Nc1nc2cccc(NC(=S)Nc3ccccc3)c2s1)c1cc2ccccc2cc1OCCCCN1CCOCC1 [Example 33, 3-[4-(morpholin-4-yl)butoxy]-N-{7-[(phenylcarbamothioyl)amino]-1,3-benzothiazol-2-yl}naphthalene-2-carboxamide] | 2.4 to 4.9 | < 2.4 |  |  |  |  | ++** (“++” indicates 200-399 pg/mL) | −** (“−” indicates less than 100 pg/mL) |
| CS(=O)(=O)Nc1ccc2nc(NC(=O)c3ccc4ccccc4c3)sc2c1 [Example 7, N-(6-methanesulfonamido-1,3-benzothiazol-2-yl)naphthalene-2-carboxamide] | 20 to 39 | < 2.4 | ++ (“++” indicates 200-399 pg/mL) | − (“−” indicates less than 100 pg/mL) |  |  |  |  |
| Cn1c(C(=O)Nc2nc3ccc(S(=O)(=O)N4CCC4)cc3s2)cc2ccccc21 [Example 51, N-[6-(azetidine-1-sulfonyl)-1,3-benzothiazol-2-yl]-1-methyl-1H-indole-2-carboxamide] | 2.4 to 4.9 | < 2.4 | + (“+” indicates 100-199 pg/mL) | − (“−” indicates less than 100 pg/mL) |  |  |  |  |
| O=C(Nc1nc2ccc(SC(F)F)cc2s1)c1ccc2ccccc2c1 [Example 4, N-{6-[(difluoromethyl)sulfanyl]-1,3-benzothiazol-2-yl}naphthalene-2-carboxamide] | ≥ 40 | < 2.4 | ++++ (“++++” indicates 800 to 1599 pg/mL) | − (“−” indicates less than 100 pg/mL) |  |  |  |  |
| O=C(Nc1nc2ccc(S(=O)(=O)N3CCC3)cc2s1)c1cc2ccccc2cc1OCCN1CCOCC1 [Example 35, N-[6-(azetidine-1-sulfonyl)-1,3-benzothiazol-2-yl]-3-[2-(morpholin-4-yl)ethoxy]naphthalene-2-carboxamide] | 20 to 39 | < 2.4 | + (“+” indicates 100-199 pg/mL) | − (“−” indicates less than 100 pg/mL) |  |  |  |  |
